Test results reported in US20260028354A1, “TETRAHYDRONAPHTHALENE DERIVATIVES AS ESTROGEN RECEPTOR DEGRADERS” (REGENT OF THE UNIVERSITY OF MICHIGAN, priority 2022, published 2026).
Where two headings read alike, the source gives them in different places.

Tests used:
[1] = Cell growth assay (WST-8) for "B" compounds; assay type: cell-based; settings: read-out: Cell growth Inhibition in T47D cell line IC50
Outline: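 Four-day compound exposure of cells plated at 1500/well the day before. Read-out is WST-8 (10%, 2.5 h, 37 °C) absorbance at 450 nm, normalized to vehicle control over three independent repeats.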

[2] = molecular target: ER (Homo sapiens (Human), UniProt P03372); assay: In-cell western blot analysis of ER for "B" compounds; assay type: cell-based; settings: 16 hours, read-out: ICW DC50
Sequence of ER (P03372 whole entry): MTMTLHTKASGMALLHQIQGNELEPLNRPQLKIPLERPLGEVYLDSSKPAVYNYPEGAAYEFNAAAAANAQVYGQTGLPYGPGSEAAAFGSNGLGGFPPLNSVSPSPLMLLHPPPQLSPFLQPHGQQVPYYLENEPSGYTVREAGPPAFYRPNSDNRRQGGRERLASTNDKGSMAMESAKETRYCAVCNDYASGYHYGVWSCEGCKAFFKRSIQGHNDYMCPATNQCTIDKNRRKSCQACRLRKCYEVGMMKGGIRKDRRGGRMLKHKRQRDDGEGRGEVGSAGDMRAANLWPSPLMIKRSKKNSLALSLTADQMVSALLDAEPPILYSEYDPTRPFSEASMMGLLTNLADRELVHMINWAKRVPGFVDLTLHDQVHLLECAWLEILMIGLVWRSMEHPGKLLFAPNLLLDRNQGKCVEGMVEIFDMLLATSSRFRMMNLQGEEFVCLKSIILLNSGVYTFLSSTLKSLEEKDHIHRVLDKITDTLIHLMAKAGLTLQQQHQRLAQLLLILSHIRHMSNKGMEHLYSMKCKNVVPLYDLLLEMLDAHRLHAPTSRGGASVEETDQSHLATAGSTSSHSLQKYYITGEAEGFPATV
Outline: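 ER levels given as a percentage of untreated/DMSO-treated wells (100%). Detection used primary antibodies for 2 h at room temperature followed by 680 and 800 nm fluorescent secondaries at 1:1000 for 1 h, read by LI-COR imaging.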

SMILES | IC50 ([1]; T47D) [nM] | DC50 [2] [nM] | IC50 ([1]; T47D, T47D cell line) [nM] | IC50 ([1]; T47D cell line) [nM]
O=C1CC[C@H](N2Cc3c(ccc4c3OCC43CCN(CC4COC5(CCN(c6ccc([C@@H]7c8ccc(O)cc8CC[C@@H]7c7ccccc7)cc6)CC5)OC4)CC3)C2=O)C(=O)N1 [Compound B337, (S)-3-(1′-((9-(4-((1R,2S)-6-hydroxy-2-phenyl-1,2,3,4-tetrahydronaphthalen-1-yl)phenyl)-1,5-dioxa-9-azaspiro[5.5]undecan-3-yl)methyl)-6-oxo-6,8-dihydro-2H,7H-spiro[furo[2,3-e]isoindole-3,4′-piperidin]-7-yl)piperidine-2,6-dione] | < 1 | < 10 | – | –
O=C1CCC(N2C(=O)c3cc4c(cc3C2=O)CN(CC2COC3(CCN(c5ccc([C@@H]6c7ccc(O)cc7CC[C@@H]6c6ccccc6)cc5)CC3)OC2)C4)C(=O)N1 (stereo partly drawn) [Compound B338, 2-(2,6-dioxopiperidin-3-yl)-6-((9-(4-((1R,2S)-6-hydroxy-2-phenyl-1,2,3,4-tetrahydronaphthalen-1-yl)phenyl)-1,5-dioxa-9-azaspiro[5.5]undecan-3-yl)methyl)-6,7-dihydropyrrolo[3,4-f]isoindole-1,3(2H,5H)-dione] | – | 10 to 100 | 1 to 10 | –
O=C1CCC(Nc2ccc(C3CCN(CC4COC5(CN(c6ccc([C@@H]7c8ccc(O)cc8CC[C@@H]7c7ccccc7)cc6)C5)OC4)CC3)cc2)C(=O)N1 (stereo partly drawn) [Compound B339, 3-((4-(1-((2-(4-((1R,2S)-6-hydroxy-2-phenyl-1,2,3,4-tetrahydronaphthalen-1-yl)phenyl)-5,9-dioxa-2-azaspiro[3.5]nonan-7-yl)methyl)piperidin-4-yl)phenyl)amino)piperidine-2,6-dione] | – | > 100 | 1 to 10 | –
O=C1CC[C@H](N2Cc3c(ccc4c3OC[C@H]3CN(CC5COC6(CCN(c7ccc([C@@H]8c9cc(Cl)c(O)cc9CC[C@@H]8c8ccccc8)cc7)CC6)OC5)CCN43)C2=O)C(=O)N1 [Compound B340, (S)-3-((R)-7-((9-(4-((1R,2S)-7-chloro-6-hydroxy-2-phenyl-1,2,3,4-tetrahydronaphthalen-1-yl)phenyl)-1,5-dioxa-9-azaspiro[5.5]undecan-3-yl)methyl)-1-oxo-1,3,5,5a,6,7,8,9-octahydro-2H-pyrazino[1′,2′:4,5][1,4]oxazino[2,3-e]isoindol-2-yl)piperidine-2,6-dione] | – | 10 to 100 | 1 to 10 | –
O=C1CC[C@H](N2Cc3c(ccc4c3OC[C@H]3CN(CC(=O)OC5CCN(c6ccc([C@@H]7c8ccc(O)cc8CC[C@@H]7c7ccccc7)cc6)CC5)CCN43)C2=O)C(=O)N1 [Compound B341] | – | < 10 | < 1 | –
O=C1CCC(N2Cc3cc4c(cc3C2=O)OC[C@@H]2CN(CC(=O)OC3CCN(c5ccc([C@@H]6c7ccc(O)cc7CC[C@@H]6c6ccccc6)cc5)CC3)CCN42)C(=O)N1 (stereo partly drawn) [Compound B342, 1-(4-((1R,2S)-6-hydroxy-2-phenyl-1,2,3,4-tetrahydronaphthalen-1-yl)phenyl)piperidin-4-yl 2-((4aS)-9-(2,6-dioxopiperidin-3-yl)-8-oxo-1,2,4a,5,9,10-hexahydro-8H-pyrazino[1′,2′:4,5][1,4]oxazino[2,3-f]isoindol-3(4H)-yl)acetate] | – | < 10 | 1 to 10 | –
O=C1CCC(N2Cc3c(ccc4c3OCC43CCN(CC(=O)OC4CCN(c5ccc([C@@H]6c7ccc(O)cc7CC[C@@H]6c6ccccc6)cc5)CC4)CC3)C2=O)C(=O)N1 (stereo partly drawn) [Compound B343, 1-(4-((1R,2S)-6-hydroxy-2-phenyl-1,2,3,4-tetrahydronaphthalen-1-yl)phenyl)piperidin-4-yl 2-(7-((S)-2,6-dioxopiperidin-3-yl)-6-oxo-7,8-dihydro-2H,6H-spiro[furo[2,3-c]isoindolc-3,4′-piperidin]-1′-yl)acetate] | 1 to 10 | > 100 | – | –
O=C1CCC(Nc2ccc(C3CCN(CC4COC5(CCN(c6ccc([C@@H]7c8ccc(O)cc8CC[C@@H]7c7ccccc7)cc6)CC5)C4)CC3)cc2)C(=O)N1 (stereo partly drawn) [Compound B344, 3-((4-(1-((8-(4-((1R,2S)-6-hydroxy-2-phenyl-1,2,3,4-tetrahydronaphthalen-1-yl)phenyl)-1-oxa-8-azaspiro[4.5]decan-3-yl)methyl)piperidin-4-yl)phenyl)amino)piperidine-2,6-dione] | – | > 100 | 1 to 10 | –
O=C1CCC(Nc2ccc(C3CCN(CC4COC5(CCN(c6ccc([C@@H]7c8ccc(O)cc8CC[C@@H]7c7ccccc7)cc6)CC5)OC4)CC3)cc2)C(=O)N1 (stereo partly drawn) [Compound B345, 3-((4-(1-((9-(4-((1R,2S)-6-hydroxy-2-phenyl-1,2,3,4-tetrahydronaphthalen-1-yl)phenyl)-1,5-dioxa-9-azaspiro[5.5]undecan-3-yl)methyl)piperidin-4-yl)phenyl)amino)piperidine-2,6-dione] | – | > 100 | 1 to 10 | –
O=C1CCC(N2Cc3c(ccc4c3OCC43CCN(CC4COC5(CN(c6ccc([C@@H]7c8ccc(O)cc8CC[C@@H]7c7ccccc7)cc6)C5)OC4)CC3)C2=O)C(=O)N1 (stereo partly drawn) [Compound B346, 3-(1′-((2-(4-((1R,2S)-6-hydroxy-2-phenyl-1,2,3,4-tetrahydronaphthalen-1-yl)phenyl)-5,9-dioxa-2-azaspiro[3.5]nonan-7-yl)methyl)-6-oxo-6,8-dihydro-2H,7H-spiro[furo[2,3-e]isoindole-3,4′-piperidin]-7-yl)piperidine-2,6-dione] | 1 to 10 | 10 to 100 | – | –
O=C1CC[C@H](NC(=O)c2ccc3c(n2)OC[C@H]2CN(CC4COC5(CN(c6ccc([C@@H]7c8ccc(O)cc8CC[C@@H]7c7ccccc7)cc6)C5)OC4)CCN32)C(=O)N1 [Compound B347, (R)-N-((S)-2,6-dioxopiperidin-3-yl)-3-((2-(4-((1R,2S)-6-hydroxy-2-phenyl-1,2,3,4-tetrahydronaphthalen-1-yl)phenyl)-5,9-dioxa-2-azaspiro[3.5]nonan-7-yl)methyl)-1,2,3,4,4a,5-hexahydropyrazino[1,2-d]pyrido[2,3-b][1,4]oxazine-8-carboxamide] | – | 10 to 100 | < 1 | –
O=C1CCC(N2Cc3c(ccc4c3OCC43CCN(CC4COC5(CCN(c6ccc([C@@H]7c8ccc(O)cc8CC[C@@H]7c7ccccc7)cc6)CC5)O4)CC3)C2=O)C(=O)N1 (stereo partly drawn) [Compound B350, 3-(1′-((8-(4-((1R,2S)-6-hydroxy-2-phenyl-1,2,3,4-tetrahydronaphthalen-1-yl)phenyl)-1,4-dioxa-8-azaspiro[4.5]decan-2-yl)methyl)-6-oxo-6,8-dihydro-2H,7H-spiro[furo[2,3-e]isoindole-3,4′-piperidin]-7-yl)piperidine-2,6-dione] | > 10 | 10 to 100 | – | –
O=C1CCC(N2Cc3cc4c(cc3C2=O)CN(CC2COC3(CCN(c5ccc([C@@H]6c7ccc(O)cc7CC[C@@H]6c6ccccc6)cc5)CC3)C2)C4)C(=O)N1 (stereo partly drawn) [Compound B352, 3-(6-((8-(4-((1R,2S)-6-hydroxy-2-phenyl-1,2,3,4-tetrahydronaphthalcn-1-yl)phcnyl)-1-oxa-8-azaspiro[4.5]decan-3-yl)methyl)-1-oxo-3,5,6,7-tetrahydropyrrolo[3,4-f]isoindol-2(1H)-yl)piperidine-2,6-dione] | – | 10 to 100 | – | 1 to 10
O=C1CCC(N2Cc3cc4c(cc3C2=O)CN(CC2COC3(CCN(c5ccc([C@@H]6c7ccc(O)cc7CC[C@@H]6c6ccccc6)cc5)CC3)OC2)C4)C(=O)N1 (stereo partly drawn) [Compound B355, 3-(6-((9-(4-((1R,2S)-6-hydroxy-2-phenyl-1,2,3,4-tetrahydronaphthalen-1-yl)phenyl)-1,5-dioxa-9-azaspiro[5.5]undecan-3-yl)methyl)-1-oxo-3,5,6,7-tetrahydropyrrolo[3,4-f]isoindol-2(1H)-yl)piperidine-2,6-dione] | – | 10 to 100 | < 1 | –
O=C1CCC(N2Cc3cc4c(cc3C2=O)OC[C@@H]2CN(CC3CCC5(C3)CN(c3ccc([C@@H]6c7ccc(O)cc7CC[C@@H]6c6ccccc6)cc3)C5)CCN42)C(=O)N1 (stereo partly drawn) [Compound B358, 3-((4aS)-3-((2-(4-((1R,2S)-6-hydroxy-2-phenyl-1,2,3,4-tetrahydronaphthalen-1-yl)phenyl)-2-azaspiro[3.4]octan-6-yl)methyl)-8-oxo-1,2,3,4,4a,5,8,10-octahydro-9H-pyrazino[1′,2′:4,5][1,4]oxazino[2,3-f]isoindol-9-yl)piperidine-2,6-dione] | – | 10 to 100 | > 10 | –
O=C1CC[C@H](N2Cc3c(ccc4c3OCC43CCN(CC4CCC5(C4)CN(c4ccc([C@@H]6c7ccc(O)cc7CC[C@@H]6c6ccccc6)cc4)C5)CC3)C2=O)C(=O)N1 (stereo partly drawn) [Compound B359, 3-(1′-((2-(4-((1R,2S)-6-hydroxy-2-phenyl-1,2,3,4-tetrahydronaphthalen-1-yl)phenyl)-2-azaspiro[3.4]octan-6-yl)methyl)-6-oxo-6,8-dihydro-2H,7H-spiro[furo[2,3-e]isoindole-3,4′-piperidin]-7-yl)piperidine-2,6-dione] | 1 to 10 | 10 to 100 | – | –
O=C1CC[C@H](NC(=O)c2ccc3c(n2)OC[C@H]2CN(CC4CCC5(C4)CN(c4ccc([C@@H]6c7ccc(O)cc7CC[C@@H]6c6ccccc6)cc4)C5)CCN32)C(=O)N1 (stereo partly drawn) [Compound B360, (4aR)-N-((S)-2,6-dioxopiperidin-3-yl)-3-((2-(4-((1R,2S)-6-hydroxy-2-phenyl-1,2,3,4-tetrahydronaphthalen-1-yl)phenyl)-2-azaspiro[3.4]octan-6-yl)methyl)-1,2,3,4,4a,5-hexahydropyrazino[1,2-d]pyrido[2,3-b][1,4]oxazine-8-carboxamide] | – | > 100 | > 10 | –
